The values that follow come from ChEMBL document CHEMBL5346901, “Discovery of potent Plasmodium falciparum protein kinase 6 (PfPK6) inhibitors with a type II inhibitor pharmacophore” (Eur J Med Chem, 2023).

The structures appear in SMILES notation. The source made the active and inactive calls. The rule behind the calls is not given here.

The target of assay [1] is T1, Cdk-related protein kinase 6 (Plasmodium falciparum) (UniProt O77239).
T1 sequence (whole entry): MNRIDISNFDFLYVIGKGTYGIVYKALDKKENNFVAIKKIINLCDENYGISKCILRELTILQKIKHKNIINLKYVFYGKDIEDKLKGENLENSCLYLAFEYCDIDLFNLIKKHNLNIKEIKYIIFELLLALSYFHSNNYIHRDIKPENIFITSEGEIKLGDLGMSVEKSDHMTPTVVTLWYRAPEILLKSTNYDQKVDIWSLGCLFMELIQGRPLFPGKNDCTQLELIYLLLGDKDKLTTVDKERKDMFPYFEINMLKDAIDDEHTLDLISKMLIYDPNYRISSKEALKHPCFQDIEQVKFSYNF
The experiment in a line: Inhibition of plasmodium falciparum PK6 assessed as remaining activity at 1 uM incubated for 2 hrs by luciferin-based luminescence assay relative to control.

Assay [2] deals with Plasmodium falciparum. Briefly: Antimalarial activity against blood stage Plasmodium falciparum 3D7 assessed as reduction in parasite growth incubated for 72 hrs by SYBR Green dye based fluorescence assay. Type of assay: functional, organism-based. The following applies: for EC50: 3D7, 72 h.

Turning to `COc1ccc(NC(=O)Nc2ccc(F)cc2F)c(F)c1`, in assay [1], the Activity is 100%. On to `COc1cc2nccc(Oc3ccc(NC(=O)Nc4ccc(N(C)C5CCN(C)CC5)cc4)c(F)c3)c2cc1OC`, for which the EC50 in assay [2] was 330 nM. Regarding `O=C(Nc1ccc(F)cc1F)Nc1ccc(Oc2ncnc3[nH]ccc23)cc1F`, the Activity in assay [1] was found to be 54%. Regarding `CCc1nc(N)nc(N)c1-c1ccc(Cl)cc1` [PYRIMETHAMINE], the EC50 in assay [2] was 27 nM. The same measure, in the same setting: as for `CCN(CC)Cc1ccc(NC(=O)Nc2ccc(Oc3ccnc4cc(OC)c(OC)cc34)cc2F)cc1OC(F)(F)F`, the figure is 270 nM. With `COc1cc2nccc(Oc3ccc(NC(=O)Nc4cc(C(F)(F)F)ccc4F)c(F)c3)c2cc1OC`, the result in assay [2] was inactive. For `O=C(Nc1ccc(F)cc1F)Nc1ccc(Oc2ccncc2)cc1F`, the Activity in assay [1] worked out at 50%. Take `COc1cc2nccc(Oc3ccc(NC(=O)Nc4cccc(C(C)C)c4)c(F)c3)c2cc1OC`: the result in assay [2] was inactive. In the case of `COc1ccc2c(Oc3ccc(NC(=O)Nc4ccc(F)cc4F)c(F)c3)ccnc2c1`, in assay [1], the Activity was determined as 11%.

As to `COc1cc2nccc(Oc3ccc(NC(=O)Nc4cccc(C(C)(C)C)c4)c(F)c3)c2cc1OC`, the EC50 in assay [2] was 2520 nM. As for `COc1cc2nccc(Oc3ccc(NC(=O)Nc4cccc(C(=O)N5CCN(C)CC5)c4)c(F)c3)c2cc1OC`, in assay [2], the outcome was inactive.

In the case of `COc1cc2nccc(Oc3ccc(NC(=O)Nc4ccc(CN5CCCC5)c(OC(F)(F)F)c4)c(F)c3)c2cc1OC`, the EC50 in assay [2] came to 230 nM. `O=C(Nc1ccc(F)cc1F)Nc1ccc(Oc2ncnc3ccsc23)cc1F`: the Activity in assay [1] came to 61%. As to `O=C(Nc1ccc(F)cc1F)Nc1ccc(Oc2ncnc3ccccc23)cc1F`, the Activity in assay [1] was determined as 83%. Regarding `COc1cc2nccc(Oc3ccc(NC(=O)Nc4ccc(CC5CCNCC5)c(OC(F)(F)F)c4)c(F)c3)c2cc1OC`, the EC50 in assay [2] is 82 nM. On to `COc1cc2nccc(Oc3ccc(NC(=O)Nc4cccc(CN5CCN(C)CC5)c4)c(F)c3)c2cc1OC`, for which, in assay [2], the result was inactive. Take `O=C(Nc1ccc(F)cc1F)Nc1ccc(Oc2cnnc3ccccc23)cc1F`: the Activity in assay [1] amounted to 100%. On the same count and under the same terms, as for `COc1cc2ncnc(Oc3ccc(NC(=O)Nc4ccc(F)cc4F)c(F)c3)c2cc1OC`, the figure is 6%.

For `COc1cc2nccc(Oc3ccc(NC(=O)Nc4ccc(C=C5CCNCC5)c(OC(F)(F)F)c4)c(F)c3)c2cc1OC`, the EC50 in assay [2] amounted to 84 nM. Regarding `COc1ccc2nccc(Oc3ccc(NC(=O)Nc4ccc(F)cc4F)c(F)c3)c2c1`, the Activity in assay [1] was determined as 24%. Take `COc1cc2nccc(Oc3ccc(NC(=O)Nc4ccc(C(=O)N5CCN(C)CC5)c(C(F)(F)F)c4)c(F)c3)c2cc1OC`: in assay [2], the result was inactive. For `COc1cc2nccc(Oc3ccc(NC(N)=O)c(F)c3)c2cc1OC`, the Activity in assay [1] turned out to be 28%. The same measure, in the same setting: the figure for `O=C(Nc1ccc(F)cc1F)Nc1ccc(Oc2cc(Cl)ncn2)cc1F` is 96%. In the case of `COc1cc2nccc(Oc3ccc(NC(=O)Nc4ccc(CN5CCCCC5)c(OC(F)(F)F)c4)c(F)c3)c2cc1OC`, the 50% effective concentration (EC50) in assay [2] came to 310 nM. In the case of `COc1cc2nccc(Oc3ccc(NC(=O)Nc4ccc(CN5CCOCC5)cc4)c(F)c3)c2cc1OC`, the outcome in assay [2] was inactive. For the compound `CN1CCN(C(=O)c2cccc(NC(=O)Nc3ccc(N(C)c4ccnc(Nc5ccc(CS(C)(=O)=O)cc5)n4)cc3)c2)CC1`, the EC50 in assay [2] was 390 nM. The same measure, in the same setting: as for `Nc1ncnc2occ(-c3ccc(NC(=O)Nc4cc(C(F)(F)F)ccc4F)cc3)c12` [GW770249X], the figure is 500 nM. Take `COc1cc2nccc(Oc3ccc(NC(=O)Nc4cccc(OC(F)F)c4)c(F)c3)c2cc1OC`: in assay [2], the outcome was inactive.

For the compound `COc1cc2nccc(Oc3cc(C(=O)Nc4ccc(CN5CCN(C)CC5)c(C(F)(F)F)c4)ccc3C)c2cc1OC`, the EC50 in assay [2] was found to be 410 nM. Same read-out and setting: as for `CCN(CC)CCCC(C)Nc1c2ccc(Cl)cc2nc2ccc(OC)cc12` (stereo unspecified) [QUINACRINE], the figure is 33 nM. In the case of `COc1cccc(NC(=O)Nc2ccc(Oc3ccnc4cc(OC)c(OC)cc34)cc2F)c1`, the outcome in assay [2] was inactive.

As for `COc1cc2nccc(Oc3ccc(NC(=O)Nc4cc(CN5CCN(C)CC5)cc(C(F)(F)F)c4)c(F)c3)c2cc1OC`, the EC50 in assay [2] came to 410 nM.

As for `COc1cc2nccc(Oc3ccc(NC(=O)Nc4ccc(N(C)C5CCN(C)CC5)c(C(F)(F)F)c4)c(F)c3)c2cc1OC`, the EC50 in assay [2] came to 150 nM.

For the compound `COc1cc2nccc(Oc3ccc(NC(=O)Nc4cccc(C)c4)c(F)c3)c2cc1OC`, in assay [2], the EC50 worked out at 3010 nM.

For `COc1cc2nccc(Oc3ccc(NC(=O)Nc4cc(C(=O)N5CCN(C)CC5)cc(C(F)(F)F)c4)c(F)c3)c2cc1OC`, the result in assay [2] was inactive.

With `COc1cc2nccc(Oc3ccc(NC(=O)Nc4ccc(NC5CCN(C)CC5)cc4)c(F)c3)c2cc1OC`, the EC50 in assay [2] came out at 660 nM.

Turning to `COc1cc2nccc(Oc3ccc(NC(=O)Nc4ccc(C=C5CCNCC5)c(C(F)(F)F)c4)c(F)c3)c2cc1OC`, the EC50 in assay [2] was 83 nM.

Regarding `COc1cc2nccc(Oc3ccc(NC(=O)Nc4ccc(CN5CCCC5)cc4)c(F)c3)c2cc1OC`, the EC50 in assay [2] was 270 nM. As to `COc1cc2nccc(Oc3ccc(NC(=O)Nc4ccc(CN5CCCCC5)c(C(F)(F)F)c4)c(F)c3)c2cc1OC`, the EC50 in assay [2] came out at 490 nM.

`COc1cc2nccc(Oc3ccc(NC(=O)Nc4ccc(CN5CCCC5)c(C(F)(F)F)c4)c(F)c3)c2cc1OC`: in assay [2], the EC50 was 330 nM. Take `COc1cc2nccc(Oc3ccc(NC(=O)Nc4ccc(CN5CCN(C)CC5)cc4)c(F)c3)c2cc1OC`: the EC50 in assay [2] was 580 nM. In the case of `CCN(CC)Cc1ccc(NC(=O)Nc2ccc(Oc3ccnc4cc(OC)c(OC)cc34)cc2F)cc1`, in assay [2], the EC50 stood at 320 nM. The same measure, in the same setting: the figure for `COc1cc2nccc(Oc3ccc(NC(=O)Nc4cccc(Cl)c4)c(F)c3)c2cc1OC` is 2190 nM; for `COc1cc2nccc(Oc3ccc(NC(=O)Nc4ccc(N(C)C5CCN(C)CC5)c(OC(F)(F)F)c4)c(F)c3)c2cc1OC` it is 250 nM; for `COc1cc2nccc(Oc3ccc(NC(=O)Nc4ccc(OC5CCN(C)CC5)c(OC(F)(F)F)c4)c(F)c3)c2cc1OC` it is 75 nM. On the same count and under the same terms, the figure for `COc1cc2nccc(Oc3ccc(NC(=O)Nc4ccc(N5CCN(C)CC5)cc4)c(F)c3)c2cc1OC` is 630 nM.

In the case of `CCN(CC)Cc1ccc(NC(=O)Nc2ccc(Oc3ccnc4cc(OC)c(OC)cc34)cc2F)cc1C(F)(F)F`, the EC50 in assay [2] is 300 nM. Same read-out and setting: the figure for `COc1cc2nccc(Oc3ccc(NC(=O)Nc4cccc(C(F)(F)F)c4)c(F)c3)c2cc1OC` is 540 nM; for `COc1cc2nccc(Oc3ccc(NC(=O)Nc4ccc(CN5CCCCC5)cc4)c(F)c3)c2cc1OC` it is 250 nM. Turning to `COc1cc2nccc(Oc3ccc(NC(=O)Nc4cccc(OC(C)C)c4)c(F)c3)c2cc1OC`, in assay [2], the result was inactive. On to `C[C@H]1[C@@H](O)O[C@@H]2O[C@@]3(C)CC[C@H]4[C@H](C)CC[C@@H]1[C@@]24OO3` [ARTENIMOL], for which the EC50 in assay [2] was determined as 0.14 nM. Still for that read-out and setting: as for `COc1cc2nccc(Oc3ccc(NC(=O)Nc4cccc(OC(F)(F)F)c4)c(F)c3)c2cc1OC`, the figure is 800 nM; as for `COc1cc2nccc(Oc3ccc(NC(=O)Nc4ccc(OC5CCN(C)CC5)cc4)c(F)c3)c2cc1OC`, 330 nM. Turning to `COc1cc2nccc(Oc3ccc(NC(=O)Nc4cccc(Br)c4)c(F)c3)c2cc1OC`, the result in assay [2] was inactive. Turning to `COc1cc2nccc(Oc3ccc(NC(=O)Nc4cccc(C#N)c4)c(F)c3)c2cc1OC`, the outcome in assay [2] was inactive.

Regarding `COc1cc2nccc(Oc3ccc(NC(=O)Nc4ccc(C(=O)N5CCN(C)CC5)cc4)c(F)c3)c2cc1OC`, the outcome in assay [2] was inactive.

The term EC50 denotes the concentration that produces a half-maximal response.
